As usually defined, the IC50 is the concentration at which inhibition is half-maximal.

Where two headings read alike, the source gives them in different places.

The target in assay [1] is T1, B-RAF^V600E (Homo sapiens, UniProt P15056, V600E).
T1 construct: purchased Reaction Biology Corporation (RBC), Kinase HotSpot service
Description: HotSpot kinase assay (RBC), B-RAF^V600E. The format is biochemical. Conditions: 10 µM ATP, 10-dose singlicate IC50 mode.

Assay [2] concerns the target T2, C-RAF (Homo sapiens, UniProt P04049). Description: HotSpot kinase assay (RBC), C-RAF. Conditions: IC50 C-RAF, 10 µM ATP, 10-dose singlicate IC50 mode.
Description: Reaction Biology Corporation (RBC) Kinase HotSpotSM service was utilized for cell-free biochemical kinase evaluation of the target compounds according to the reported assay protocol [46].
Assay [3] has as its system EGFR. The arrangement: method as in PMID 24588073. Conditions: cited from earlier work.
Assay [4] deals with RAF. The arrangement: method as in PMID 28368067. Conditions: cited from earlier work.
Assay [5] deals with B-RAF. The arrangement: method as in PMID 25461318. Conditions: cited from earlier work.
In assay [6] the target is T2, C-RAF. The conditions noted are these: at 10 µM; cited from earlier work.
In assay [7] the target is T1, B-RAF^V600E. Conditions: cited from earlier work.
The test system of assay [8] is Src. Set-up: method as in PMID 25835317. The conditions noted are these: cited from earlier work.
In assay [9] the test system is B-RAF^WT. Set-up: method as in PMID 25835317. The conditions noted are these: cited from earlier work.
Assay [10] addresses T1, B-RAF^V600E. The arrangement: method as in PMID 24900673, PMID 33780623. Conditions: cited from earlier work.

T1 sequence (P15056 whole entry V600E): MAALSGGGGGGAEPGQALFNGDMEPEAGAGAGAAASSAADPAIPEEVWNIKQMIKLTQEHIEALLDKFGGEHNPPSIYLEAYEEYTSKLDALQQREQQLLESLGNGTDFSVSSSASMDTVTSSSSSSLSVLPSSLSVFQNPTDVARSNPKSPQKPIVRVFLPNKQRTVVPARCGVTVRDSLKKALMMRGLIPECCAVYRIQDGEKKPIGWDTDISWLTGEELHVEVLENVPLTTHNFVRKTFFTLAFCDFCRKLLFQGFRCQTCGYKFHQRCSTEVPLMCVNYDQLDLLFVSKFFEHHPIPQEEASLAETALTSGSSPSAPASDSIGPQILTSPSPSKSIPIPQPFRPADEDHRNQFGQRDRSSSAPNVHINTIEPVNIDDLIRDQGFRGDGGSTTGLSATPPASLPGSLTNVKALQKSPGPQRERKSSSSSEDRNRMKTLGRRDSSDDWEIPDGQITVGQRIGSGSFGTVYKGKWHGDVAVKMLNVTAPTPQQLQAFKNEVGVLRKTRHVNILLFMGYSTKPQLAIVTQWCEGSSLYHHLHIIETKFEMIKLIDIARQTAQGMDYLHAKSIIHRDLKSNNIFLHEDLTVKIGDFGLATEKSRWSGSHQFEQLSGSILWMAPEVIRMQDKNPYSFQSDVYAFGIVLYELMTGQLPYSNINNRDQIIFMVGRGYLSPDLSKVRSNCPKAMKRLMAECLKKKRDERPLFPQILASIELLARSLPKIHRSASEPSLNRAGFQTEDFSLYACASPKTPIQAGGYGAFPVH
T2 sequence (P04049 whole entry): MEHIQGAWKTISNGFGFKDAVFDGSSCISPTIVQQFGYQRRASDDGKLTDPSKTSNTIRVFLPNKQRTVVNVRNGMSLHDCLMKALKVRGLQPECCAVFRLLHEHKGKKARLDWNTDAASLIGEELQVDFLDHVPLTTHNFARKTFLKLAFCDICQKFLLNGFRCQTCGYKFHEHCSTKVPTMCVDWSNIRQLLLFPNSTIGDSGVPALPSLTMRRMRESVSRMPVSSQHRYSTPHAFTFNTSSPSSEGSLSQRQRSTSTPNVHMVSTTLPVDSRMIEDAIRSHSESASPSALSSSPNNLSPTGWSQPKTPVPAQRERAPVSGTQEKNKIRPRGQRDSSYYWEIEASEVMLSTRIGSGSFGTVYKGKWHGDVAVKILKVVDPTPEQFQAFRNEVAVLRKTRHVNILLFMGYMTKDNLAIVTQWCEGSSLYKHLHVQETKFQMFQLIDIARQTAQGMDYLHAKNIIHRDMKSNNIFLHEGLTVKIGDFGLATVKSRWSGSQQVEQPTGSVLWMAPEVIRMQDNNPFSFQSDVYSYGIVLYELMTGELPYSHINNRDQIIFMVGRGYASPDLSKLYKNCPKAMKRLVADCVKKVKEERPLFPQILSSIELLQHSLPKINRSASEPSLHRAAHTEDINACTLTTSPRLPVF

`COc1ccc2nc(Nc3cccc(NC(=O)c4ccc(CN5CCCN(C)CC5)c(C(F)(F)F)c4)c3)ccc2c1` [Compound 16b, N-(3-((6-methoxyquinolin-2-yl)amino)phenyl)-4-((4-methyl-1,4-diazepan-1-yl)methyl)-3-(trifluoromethyl)benzamide]: the IC50 came out at 308 ± 14.9 nM in assay [1] and 164 ± 6.05 nM in assay [2].

In the case of `Cc1ccc(C(=O)Nc2ccc(CN3CCN(C)CC3)c(C(F)(F)F)c2)cc1NC(=O)c1cnc2[nH]ccc2c1` [Compound IV], the concentration for half-maximal inhibition (IC50) in [3] is 8 nM.

Consider `Cc1ccc(C(=O)Nc2ccc(Cl)c(C(F)(F)F)c2)cc1NC(=O)C1(c2ccnc(NCCN3CCN(C)CC3)n2)CC1` [III], for which the “IC50 values, pan-RAF” value in assay [4] is on record as “two digits nanomolar”.

Take `O=C(Nc1ccc(Cl)c(C(F)(F)F)c1)c1ccc(Cl)c(C(=O)Nc2ccc(-c3ncc[nH]3)nc2)c1` [II]: the half-maximal inhibitory concentration (IC50) in assay [5] is 531 nM.

Take `COc1cc2cc(Oc3ccc(NC(=O)c4cc(C(F)(F)F)cc(C(F)(F)F)c4)cc3)c(C)nc2cc1OC` [VI]: the “inhibition of C-RAF” value in assay [6] is 77%.

On to `CCn1nc(C#Cc2cc(C(=O)Nc3ccc(CN4CCN(C)CC4)c(C(F)(F)F)c3)ccc2C)c2c(N)ncnc21` [V], for which the figures for the IC50 in assay [7], in [8] and in [9] were 92 nM, 0.9 nM and 15 nM, respectively.

As to `CC(C)(C)c1nc(-c2cccc(NS(=O)(=O)c3c(F)cccc3F)c2F)c(-c2ccnc(N)n2)s1` [dabrafenib], in assay [10], the “selectivity against B-RAF^V600E than its wild type” value is recorded as 500 fold.

In the case of `CCCS(=O)(=O)Nc1ccc(F)c(C(=O)c2c[nH]c3ncc(-c4ccc(Cl)cc4)cc23)c1F` [vemurafenib], the “selectivity against B-RAF^V600E than its wild type” value in assay [10] is 100 fold.
